In patent US20100285959A1, “HERBICIDAL MIXTURES” (priority 2006, published 2010):

Columns and labels:
Experiment in all cases: Test 7 field trial, preemergence
morningglory (IPOSS) = format: in vivo, Ipomoea L. spp.
Protocol: (§1) Plots were 7.6 m long by 3.0 m wide with rows spaced 76 cm apart. Seeds were spaced 15 cm apart within the rows. The field was managed using conventional tillage practices. […] Wild radish was evaluated 14 and 28 days after application. […] Results are the means of the three replicates.

jimsonweed (DATST) = format: in vivo, Datura stramonium
Protocol: as §1

corn (ZEAMD) = format: in vivo, Zea mays ssp. indentata; settings: hybrid Pioneer 36B10, corn (Zea mays ssp. indentata), in vivo, 62 days after application
Protocol: as §1

redroot pigweed (AMARE) = format: in vivo, Amaranthus retroflexus
Protocol: as §1

wild radish (RAPRA) = format: in vivo, Raphanus raphanistrum
Protocol: as §1

[1] = system: Pennsylvania smartweed (POLPY); format: in vivo, Polygonum pensylvanicum
Protocol: as §1

annual grasses (GGGAN) = format: in vivo, Gramineae
Protocol: as §1

CCOC(=O)c1nc(C2CC2)nc(N)c1Br [Compound 6, ethyl 6-amino-5-bromo-2-cyclopropyl-4-pyrimidinecarboxylate]
IPOSS Obs (morningglory (IPOSS); 14 DAA, 125 g a.i./ha): 93%
IPOSS Obs (morningglory (IPOSS); 14 DAA, 250 g a.i./ha): 100%
IPOSS Obs (morningglory (IPOSS); 14 DAA, 500 g a.i./ha): 100%
IPOSS Obs (morningglory (IPOSS); 28 DAA, 125 g a.i./ha): 93%
IPOSS Obs (morningglory (IPOSS); 28 DAA, 250 g a.i./ha): 100%
IPOSS Obs (morningglory (IPOSS); 28 DAA, 500 g a.i./ha): 100%
IPOSS Obs (morningglory (IPOSS); 62 DAA, 125 g a.i./ha): 100%
IPOSS Obs (morningglory (IPOSS); 62 DAA, 250 g a.i./ha): 100%
IPOSS Obs (morningglory (IPOSS); 62 DAA, 500 g a.i./ha): 100%
DATST Obs (jimsonweed (DATST); 14 DAA, 125 g a.i./ha): 87%
DATST Obs (jimsonweed (DATST); 14 DAA, 250 g a.i./ha): 100%
DATST Obs (jimsonweed (DATST); 14 DAA, 500 g a.i./ha): 95%
DATST Obs (jimsonweed (DATST); 28 DAA, 125 g a.i./ha): 90%
DATST Obs (jimsonweed (DATST); 28 DAA, 250 g a.i./ha): 100%
DATST Obs (jimsonweed (DATST); 28 DAA, 500 g a.i./ha): 100%
DATST Obs (jimsonweed (DATST); 62 DAA, 125 g a.i./ha): 75%
DATST Obs (jimsonweed (DATST); 62 DAA, 250 g a.i./ha): 100%
DATST Obs (jimsonweed (DATST); 62 DAA, 500 g a.i./ha): 90%
ZEAMD Obs (corn (ZEAMD)): 0%
AMARE Obs (redroot pigweed (AMARE); 14 DAA, 125 g a.i./ha): 87%
AMARE Obs (redroot pigweed (AMARE); 14 DAA, 250 g a.i./ha): 98%
AMARE Obs (redroot pigweed (AMARE); 14 DAA, 500 g a.i./ha): 98%
AMARE Obs (redroot pigweed (AMARE); 28 DAA, 125 g a.i./ha): 82%
AMARE Obs (redroot pigweed (AMARE); 28 DAA, 250 g a.i./ha): 97%
AMARE Obs (redroot pigweed (AMARE); 28 DAA, 500 g a.i./ha): 98%
AMARE Obs (redroot pigweed (AMARE); 62 DAA, 125 g a.i./ha): 80%
AMARE Obs (redroot pigweed (AMARE); 62 DAA, 250 g a.i./ha): 70%
AMARE Obs (redroot pigweed (AMARE); 62 DAA, 500 g a.i./ha): 100%
RAPRA Obs (wild radish (RAPRA); 14 DAA, 125 g a.i./ha): 25%
RAPRA Obs (wild radish (RAPRA); 14 DAA, 250 g a.i./ha): 40%
RAPRA Obs (wild radish (RAPRA); 14 DAA, 500 g a.i./ha): 43%
RAPRA Obs (wild radish (RAPRA); 28 DAA, 125 g a.i./ha): 35%
RAPRA Obs (wild radish (RAPRA); 28 DAA, 250 g a.i./ha): 30%
RAPRA Obs (wild radish (RAPRA); 28 DAA, 500 g a.i./ha): 30%
POLPY Obs ([1]; 14 DAA, 125 g a.i./ha): 40%
POLPY Obs ([1]; 14 DAA, 250 g a.i./ha): 83%
POLPY Obs ([1]; 14 DAA, 500 g a.i./ha): 93%
POLPY Obs ([1]; 28 DAA, 125 g a.i./ha): 45%
POLPY Obs ([1]; 28 DAA, 250 g a.i./ha): 80%
POLPY Obs ([1]; 28 DAA, 500 g a.i./ha): 88%
POLPY Obs ([1]; 62 DAA, 125 g a.i./ha): 75%
POLPY Obs ([1]; 62 DAA, 250 g a.i./ha): 55%
POLPY Obs ([1]; 62 DAA, 500 g a.i./ha): 100%
GGGAN Obs (annual grasses (GGGAN); 14 DAA, 125 g a.i./ha): 7%
GGGAN Obs (annual grasses (GGGAN); 14 DAA, 250 g a.i./ha): 53%
GGGAN Obs (annual grasses (GGGAN); 14 DAA, 500 g a.i./ha): 63%
GGGAN Obs (annual grasses (GGGAN); 28 DAA, 125 g a.i./ha): 2%
GGGAN Obs (annual grasses (GGGAN); 28 DAA, 250 g a.i./ha): 35%
GGGAN Obs (annual grasses (GGGAN); 28 DAA, 500 g a.i./ha): 52%
GGGAN Obs (annual grasses (GGGAN); 62 DAA, 125 g a.i./ha): 90%
GGGAN Obs (annual grasses (GGGAN); 62 DAA, 250 g a.i./ha): 0%
GGGAN Obs (annual grasses (GGGAN); 62 DAA, 500 g a.i./ha): 0%
